Calls of active or inactive are those of the source.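 Rule for the calls: active = AC50 no more than ten times the top concentration tested, that is within one log above it; inconclusive = flat curve fit with activity between 30% and 70%, or invalid poor fit; inactive = AC50 beyond ten times the top tested dose.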
What follows are compounds tested on S. cerevisiae Mot1-301 ts growth rescue, BacTiter-Glo ATP luminescence (assay: restored Mot1-301 yeast growth at 38.5C – whole organism, S. cerevisiae, Mot1-301 ts mutant, luminescence, dose retest, SUMOylation pathway inhibitor project, confirmation (AID 463204);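 note: growth at restrictive 38.5 degrees C of Mot1-301 OY566 strain; actives raise luminescence by restoring growth of the ts mutant at high temperature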).
For `Cc1ccccc1CSc1n[nH]c(NS(=O)(=O)c2ccccc2)n1`, the AC50 was > 21 µM (inactive). For `COc1cccc(CN(C)C(=O)C2CCC(=O)N(Cc3cccc(F)c3)C2)c1` (configuration not stated), the AC50 was > 42 µM (inactive). With `CC1(C)c2[nH]c3ccccc3c2C[C@H]2C(=O)N(Cc3cccc(F)c3)C(=O)N21` the AC50 was > 42 µM (inactive). `COc1cccc(NC(=O)CN2CCN(c3ccccc3F)CC2)c1` gave an AC50 of 39.1 µM. For `C/C(=N\NC(=O)Cc1csc(N2CCOCC2)n1)c1ccccc1`, the AC50 was > 42 µM (inactive). In the case of `NS(=O)(=O)c1ccc(CCNC(=O)CN2CCN(c3ccc(F)cc3)CC2)cc1`, the AC50 is reported as > 42 µM (inactive). In the case of `O=C(CSc1nnc(CNC(=O)c2ccco2)o1)Nc1nc2ccccc2s1`, the AC50 is reported as > 42 µM (inactive). With `Cc1ccc(-c2csc(NC(=O)CSc3nc(C)cs3)n2)cc1` the AC50 was > 42 µM (inactive). `CC(SC#N)C(=O)C12CC3CC(CC(C3)C1)C2` (configuration not stated) gave an AC50 of 6.33 µM. In the case of `O=C1NC2(CCCCO2)CO1` (configuration not stated), the AC50 is reported as > 42 µM (inactive). In the case of `C=CCNC(=O)c1onc(CSc2cccc(C)c2)c1C(=O)O`, the AC50 is reported as > 42 µM (inactive). For `CN(C)c1ccc(/C=N\Nc2ccccn2)cc1`, the AC50 was > 42 µM (inactive). For `COc1ccccc1-c1sc2ccccc2c1-c1ccc2c(c1)OCO2`, the AC50 was > 42 µM (inactive). `CCOc1ccc(CCN2CN(C3CCCCC3)CNC2=S)cc1OCC` was tested, and the AC50 was > 42 µM (inactive). With `O=C(CCNC(=O)c1ccc(Br)cc1)NCc1ccccc1F` the AC50 was > 42 µM (inactive). In the case of `O=S(=O)(NCCN1CCCC1)c1cccc2cccnc12`, the AC50 is reported as > 42 µM (inactive). `S=C(NCCc1ccccc1)Nc1ccccc1Cl` was tested, and the AC50 was > 42 µM (inactive). With `CCC(CC)C(=O)N1CCCC(c2nc(-c3cccs3)no2)C1` (configuration not stated) the AC50 was > 42 µM (inactive). `COc1cccc(OC)c1C(=O)Nc1ccc2c(c1)n(C)c(=O)n2C` was tested, and the AC50 was > 42 µM (inactive). `O=C(NNc1ccccc1)C(CCO)C(=O)NNc1ccccc1` was tested, and the AC50 was > 42 µM (inactive). `Cc1nnc(SCC(=O)NCc2ccccc2Cl)[nH]c1=O` was tested, and the AC50 was > 42 µM (inactive). In the case of `CCOc1ccc(-c2nc3n(c(=O)c2C#N)CCS3)cc1`, the AC50 is reported as > 42 µM (inactive). Work on `Nc1ccc(Oc2ccccc2-c2ccccc2)cc1` yielded an AC50 of 20.8 µM. With `S=c1[nH]ccn1-c1cccc(Cl)c1` the AC50 was > 42 µM (inactive). With `c1ccc(-c2cc3cc4c(cc3cn2)OCO4)cc1` the AC50 was 11.7 µM. In the case of `O=C1c2cccc3c(N4CCCCC4)ccc(c23)C(=O)N1CCO`, the AC50 is reported as > 42 µM (inactive). `O=C1C2C(c3ccccc3)CC=CC2[C@H](c2ccc3ccccc3c2)N1Cc1ccccc1` (some centres not stated) showed an AC50 of 11.3 µM. For `Cn1cnnc1-c1cccc(NS(=O)(=O)c2ccc(N3CCCC3=O)cc2)c1`, the AC50 was > 42 µM (inactive). With `c1ccc(-c2nc(NCc3ccco3)c3ccccc3n2)nc1` the AC50 was > 42 µM (inactive). For `O=C(CCN1C(=O)S/C(=C/c2ccccc2)C1=O)Nc1ccc(O)c(C(=O)O)c1`, the AC50 was > 42 µM (inactive). In the case of `O=C(CCSc1ccccc1)NNC(=O)c1ccccc1F`, the AC50 is reported as > 42 µM (inactive). For `O=C(CCCNC(=O)/C(=C/c1ccccc1F)NC(=O)c1ccccc1)OCc1ccccc1`, the AC50 was > 42 µM (inactive). In the case of `COc1ccc(-c2csc(NC(=O)CS(=O)(=O)c3ccc(F)cc3)n2)cc1OC`, the AC50 is reported as > 42 µM (inactive). `CCOc1ccc(NC(=O)CC2C(=O)N(c3ccccc3)C(=S)N2Cc2ccccn2)cc1` (configuration not stated) was tested, and the AC50 was > 42 µM (inactive). In the case of `CCOC(=O)c1sc2ncn(C(CC)C(=O)OCC)c(=O)c2c1C` (configuration not stated), the AC50 is reported as > 42 µM (inactive). In the case of `CCN(CC1COc2ccccc2O1)C(=S)NCCCN(C)C` (configuration not stated), the AC50 is reported as > 42 µM (inactive). `CCN(CC)C(=O)Cn1cc(S(=O)(=O)CC(=O)NCCc2ccc(OC)c(OC)c2)c2ccccc21` was tested, and the AC50 was > 42 µM (inactive). `Cn1c(-c2sc3cc(C(F)(F)F)cnc3c2-c2cccs2)n[nH]c1=S` was tested, and the AC50 was > 42 µM (inactive). `CCOc1ccc2nc(C(C)O)[nH]c2c1` (configuration not stated) was tested, and the AC50 was > 42 µM (inactive). For `COc1ccc(NC(=S)NC(=O)C2CCC2)cc1`, the AC50 was > 42 µM (inactive). `Cc1ccc(C(=O)N/C(=C\c2cccs2)C(=O)NCCc2c[nH]c3ccccc23)cc1` was tested, and the AC50 was > 42 µM (inactive). With `Cc1cc(C)c(NC(=O)CNC(=O)c2cc([N+](=O)[O-])ccc2N2CCOCC2)c(C)c1` the AC50 was > 42 µM (inactive). For `CCCNC(=O)Cn1nc(C)n2c(cc3cc(F)ccc32)c1=O`, the AC50 was > 42 µM (inactive). With `Cc1nc2ccccc2n(CC(=O)Nc2cc(Cl)cc(Cl)c2)c1=O` the AC50 was > 42 µM (inactive). `CC(=O)N1N=C(N)SC12CCCC2` was tested, and the AC50 was > 42 µM (inactive). With `Cc1cccc2nc(COc3ccc4ccccc4c3Br)cn12` the AC50 was 11.9 µM. With `O=C(CN1C(=O)NC2(CCCC2)C1=O)Nc1nc2ccccc2[nH]1` the AC50 was > 42 µM (inactive). `CC1CN(Cc2ccccc2)c2nc3c(c(=O)[nH]c(=O)n3C)n2C1` (configuration not stated) was tested, and the AC50 was > 42 µM (inactive). In the case of `COC(=O)[C@@]12CCCCN1[C@H](c1ccc(-c3cccc(Cl)c3)c(OC)c1)[C@H]1C(=O)N(C)C(=O)[C@H]12`, the AC50 is reported as > 42 µM (inactive). `CC1CCN(S(=O)(=O)c2ccc(NC(=O)c3cccs3)cc2)CC1` was tested, and the AC50 was > 42 µM (inactive). For `COC(=O)CN1C(=O)c2cccc3cccc1c23`, the AC50 was > 42 µM (inactive). For `NS(=O)(=O)c1cccc(NC(=O)c2cccnc2Oc2ccccc2)c1`, the AC50 was > 42 µM (inactive). In the case of `NC(=O)CC(NC(=O)Cc1cccc2ccccc12)c1ccc(NCCCN2CCCC2=O)c([N+](=O)[O-])c1` (configuration not stated), the AC50 is reported as > 42 µM (inactive). With `CC(C)Sc1ccc(C(=O)Nc2ccc(F)cc2F)cn1` the AC50 was > 42 µM (inactive). For `O=C(CSc1nnc(-c2ccccc2Cl)o1)Oc1ccc(Br)cc1`, the AC50 was > 42 µM (inactive). With `Cc1nc(N)c(Cc2ccccc2F)c(N)n1` the AC50 was > 42 µM (inactive). For `CC1=C(C)CS(=O)N(S(=O)(=O)c2ccc(Cl)cc2)C1` (configuration not stated), the AC50 was 3.41 µM. `O=C(COc1ccccc1Cl)c1ccc[nH]1` was tested, and the AC50 was > 42 µM (inactive). With `OCC1(Cc2cccc(Cl)c2)CCCN(Cc2ccc(F)c(F)c2)C1` (configuration not stated) the AC50 was > 42 µM (inactive). In the case of `OCCc1c[nH]c2cc(F)ccc12`, the AC50 is reported as > 110 µM (inactive). For `N#Cc1ccc(Oc2ccc(S(=O)(=O)N3CCCCC3)cn2)cc1`, the AC50 was > 42 µM (inactive). `Cc1cc(S(=O)(=O)NCC(C)C)ccc1OCC(=O)N1CCOCC1` was tested, and the AC50 was > 42 µM (inactive). In the case of `COc1ccccc1C(=O)NCCNc1ccc([N+](=O)[O-])cc1Cl`, the AC50 is reported as > 110 µM (inactive). `Cc1ccccc1-c1nnnn1C1CCS(=O)(=O)C1` (configuration not stated) was tested, and the AC50 was > 42 µM (inactive). In the case of `CC(=O)NCCc1nc2cc(NC(=O)c3ccc(F)cc3)ccc2n1C`, the AC50 is reported as > 42 µM (inactive). `O=C(CCn1cnnn1)Nc1ccc(Cl)cc1Cl` was tested, and the AC50 was > 42 µM (inactive). For `Cc1ccccc1NC1=NCCCS1`, the AC50 was > 42 µM (inactive). `COc1cc(NC(=O)CN2CCN(CC(=O)Nc3ccccc3OC)CC2)cc(OC)c1` was tested, and the AC50 was > 42 µM (inactive). In the case of `N#Cc1c(NC(=O)c2ccc([N+](=O)[O-])o2)sc2c1CCC2`, the AC50 is reported as 40.1 µM. In the case of `COc1ccccc1N(CC(=O)NCC1CCCO1)C(=O)CCC(=O)Nc1cc(C)on1` (configuration not stated), the AC50 is reported as > 42 µM (inactive). For `O=C(COc1ccccc1)Nc1cccc(-c2nnc(-c3ccccc3)o2)c1`, the AC50 was > 42 µM (inactive). For `Cc1ccc(-c2nc3c(=O)n(-c4ccccc4)c4c(c(=O)n(C)c(=O)n4C)c3o2)cc1`, the AC50 was > 42 µM (inactive). `O=C(CCc1ccccc1)N1CCN(c2ccccc2F)CC1` was tested, and the AC50 was > 42 µM (inactive). In the case of `Cc1ccc(-n2c(SCC(=O)N(C)C3CCS(=O)(=O)C3)nc3ccccc3c2=O)cc1` (configuration not stated), the AC50 is reported as > 42 µM (inactive). For `COc1ccc(-c2cc(C(F)(F)F)n3ncc(C(=O)O)c3n2)cc1OC`, the AC50 was > 42 µM (inactive). For `CCNC(=S)Nc1ccc(C)c(S(=O)(=O)Nc2ccccc2OC)c1`, the AC50 was > 42 µM (inactive). `CCN(CC)CCCNC(=O)C1c2ccccc2C(=O)N(CCOC)C1c1ccc(F)cc1` (configuration not stated) was tested, and the AC50 was > 21 µM (inactive). In the case of `Cn1c(C(=O)NCCc2ccsc2)cc2c(=O)n(C)c3ccccc3c21`, the AC50 is reported as > 42 µM (inactive). In the case of `COc1ccccc1CC(=O)N1CCOCC1`, the AC50 is reported as > 42 µM (inactive). `CCOC(=O)C(C)(C)Sc1nc2c(cnn2-c2ccc(C)cc2)c(=O)[nH]1` was tested, and the AC50 was > 42 µM (inactive). `Cc1cc2nc(CCl)cc(=O)n2[nH]1` was tested, and the AC50 was > 42 µM (inactive). `COc1cc(/C=N/NC(=O)c2cccnc2)ccc1OCC(=O)N1CCOCC1` was tested, and the AC50 was > 42 µM (inactive). `CC(=O)c1ccc(N2CCN(CC(=O)Nc3cc(C)on3)CC2)cc1` was tested, and the AC50 was > 42 µM (inactive). `Cc1nn(C(C)(C)C)c(OC(=O)c2ccc3c(c2)OCO3)c1S(=O)(=O)c1ccccc1` was tested, and the AC50 was > 42 µM (inactive). In the case of `CCCCCCNc1c(C(=O)OCC)c(=O)[nH]c2ccccc12`, the AC50 is reported as > 42 µM (inactive). `O=C(OCCCN=C1NS(=O)(=O)c2ccccc21)c1cccs1` was tested, and the AC50 was > 42 µM (inactive). For `CCOC(=O)c1c(CN2CCCCC2)n(C)c2cc(Br)c(O)c(CN(C)C)c12`, the AC50 was > 42 µM (inactive). For `CCCCC(=O)N/N=C(\C)CC(=O)Nc1cc(Cl)ccc1OC`, the AC50 was > 42 µM (inactive). With `Cc1cc(-c2ccc(C(C)C)c(S(=O)(=O)N3CC(=O)Nc4ccccc43)c2)on1` the AC50 was > 42 µM (inactive). In the case of `Cc1c(NC(=O)c2cc(-c3ccccc3O)on2)c(=O)n(-c2ccccc2)n1C`, the AC50 is reported as > 42 µM (inactive). For `N#C/C(=N\Nc1cccc(F)c1)C(=N)N1CCCCCC1`, the AC50 was > 42 µM (inactive). `Cc1c(Cl)cccc1NC(=S)NCCCN(C)C` was tested, and the AC50 was > 42 µM (inactive). In the case of `COc1cc(/C=N/n2cnnc2)ccc1OCc1ccccc1`, the AC50 is reported as > 42 µM (inactive). `C=CCN1C(=O)/C(=C\c2ccc(C)cc2)N=C1SCC(=O)NCCC` was tested, and the AC50 was > 42 µM (inactive). `CN(C(=S)NC1=CCS(=O)(=O)C1)C1CCCCC1` was tested, and the AC50 was > 42 µM (inactive). For `COC(=O)c1ccc(Cl)c(NC(=O)CN(c2ccc(OC)c(OC)c2)S(C)(=O)=O)c1`, the AC50 was > 42 µM (inactive). For `CCOC(=O)C1(Cc2cccc(F)c2)CCN(C(=O)c2cnccn2)CC1`, the AC50 was > 42 µM (inactive). `Cc1cc(O)c(/C=N/Nc2cccc(Cl)c2)c(=O)o1` was tested, and the AC50 was 3.95 µM. For `CCOC(=O)c1cnc2c(OC)cccc2c1N1CCN(c2ccccc2OC)CC1`, the AC50 was > 42 µM (inactive). For `COC(=O)c1ccncc1C(=O)Nc1ccc(Oc2ncc(C(F)(F)F)cc2Cl)cc1`, the AC50 was > 42 µM (inactive). `Cc1cc([N+](=O)[O-])nn1CC(=O)NNC(=S)Nc1ccc([N+](=O)[O-])cc1` was tested, and the AC50 was > 42 µM (inactive). For `COc1ccc(C)cc1NC(=S)N1CCN(c2ccccn2)CC1`, the AC50 was > 42 µM (inactive).

From PubChem BioAssay AID463204 (Broad Institute, 2010)
